# In ChEMBL document CHEMBL3714730, “Diaminopyrimidines as P2X3 and P2X2/3 modulators” (2009):
# The source made the active and inactive calls. The rule behind the calls is not given here.
# Experiments:
# [1] = biological target: P2X2/P2X3 heterotrimeric receptor (Homo sapiens) (UniProt Q9UBL9+P56373); experiment: Antagonist activity against human P2X2/3 receptor expressed in CHOK1 cells assessed as inhibition of alpha,beta-meATP-induced calcium response incubated for 20 mins by Fluo-3AM dye based FLIPR assay; format: functional, cell-based; details: CHO-K1
# [2] = biological target: T1, P2X purinoceptor 3 (Rattus norvegicus) (UniProt P49654); experiment: Antagonist activity against rat P2X3 receptor expressed in CHOK1 cells assessed as inhibition of alpha,beta-meATP-induced calcium response incubated for 20 mins by Fluo-3AM dye based FLIPR assay; format: functional, cell-based; details: CHO-K1
# T1 sequence (whole entry): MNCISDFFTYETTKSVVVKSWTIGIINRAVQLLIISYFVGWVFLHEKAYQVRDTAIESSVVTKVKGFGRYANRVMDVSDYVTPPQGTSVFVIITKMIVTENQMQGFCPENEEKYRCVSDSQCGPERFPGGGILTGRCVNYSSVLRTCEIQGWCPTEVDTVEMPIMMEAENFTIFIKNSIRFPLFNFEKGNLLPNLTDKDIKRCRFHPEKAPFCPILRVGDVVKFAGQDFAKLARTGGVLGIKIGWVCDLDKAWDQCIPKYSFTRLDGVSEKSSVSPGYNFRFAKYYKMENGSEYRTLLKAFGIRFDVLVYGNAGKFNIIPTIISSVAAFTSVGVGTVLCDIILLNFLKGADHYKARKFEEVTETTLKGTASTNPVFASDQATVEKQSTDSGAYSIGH
SMILES,inhibition [1],inhibition [2]
CC#Cc1cc(Oc2cnc(N)nc2N)c(C(C)C)cc1F,Active,Active
C#Cc1ccc(C(C)C)c(Oc2cnc(N)nc2N)c1,Active,Active
COc1cc(C(C)C)c(Oc2cnc(N)nc2N)cc1C#Cc1cccnc1,Active,Active
COCC#Cc1cc(Oc2cnc(N)nc2N)c(C(C)C)cc1OC,Active,Active
C#Cc1cc(Oc2cnc(N)nc2N)c(C#C)cc1OC,Active,Active
C#Cc1cc(Oc2cnc(NC(C)CO)nc2N)c(C(C)C)cc1OC (configuration not stated),Active,Active
C#Cc1cc(Cc2cnc(N)nc2N)c(C(C)C)cc1OC,Active,Active
COc1cc(C(C)C)c(Oc2cnc(N)nc2N)cc1C#C[Si](C)(C)C,Active,Active
CCCC#Cc1cc(Oc2cnc(N)nc2N)c(C(C)C)cc1OC,Active,Active
CC#Cc1cc(Oc2cnc(N)nc2N)c(C(C)C)cc1OC,Active,Active
COc1cc(C(C)C)c(Oc2cnc(N)nc2N)cc1C#Cc1cncn1C,Active,Active
COc1cc(I)cc(Oc2cnc(N)nc2N)c1C(C)C,Active,Active
COc1cc(C(C)C)c(Oc2cnc(N)nc2N)cc1C#Cc1ccsc1,Active,Active
C#Cc1cc(Oc2cnc(NCCN3CCCCC3)nc2N)c(C(C)C)cc1OC,Active,Active
C#Cc1cc(Oc2cnc(NCC(C)O)nc2N)c(C(C)C)cc1OC (configuration not stated),Active,Active
COc1cc(C(C)C)c(Oc2cnc(N)nc2N)cc1C#CCCC#N,Active,Active
C#Cc1cc(Oc2cnc(N)nc2N)c(C(C)C)cc1F,Active,Active
C#Cc1cc(OC)c(I)cc1Oc1cnc(N)nc1N,Active,Active
COc1cc(C(C)C)c(Oc2cnc(N)nc2N)cc1C#Cc1ccccn1,Active,Active
C#Cc1cc(Oc2cnc(N)nc2N)c(CC)cc1OC,Active,Active
C#Cc1ccc(C#C)c(Oc2cnc(N)nc2N)c1,Active,Active

SMILES,inhibition [1],inhibition [2]
C#Cc1cc(Oc2cnc(N)nc2N)c(C(C)C)cc1OCc1cccc(F)c1,Active,Active
C#Cc1cc(Oc2cnc(NC3CCN(S(C)(=O)=O)CC3)nc2N)c(C(C)C)cc1OC,Active,Active
COc1cc(C(C)C)c(Oc2cnc(N)nc2N)cc1C#CCCO,Active,Active
C#Cc1ccc(I)c(Oc2cnc(N)nc2N)c1,Active,Active
C#Cc1cc(OC)c(C(C)C)c(Oc2cnc(N)nc2N)c1,Active,Active
C#Cc1cc(Oc2cnc(NC(CO)CO)nc2N)c(C(C)C)cc1OC,Active,Active
COc1cc(C(C)C)c(Oc2cnc(N)nc2N)cc1C#Cc1ccncc1,Active,Active
C#Cc1cc(Oc2cnc(N)nc2N)c(C(C)C)cc1Cl,Active,Active
COc1cc(C(C)C)c(Oc2cnc(N)nc2N)cc1C#CC1CC1,Active,Active
C#Cc1cc(Oc2cnc(NCCN(C)C)nc2N)c(C(C)C)cc1OC,Active,Active
C#Cc1cc(Oc2cnc(N)nc2N)c(C(C)C)cc1OC,Active,Active
C#Cc1cc(Oc2cnc(NC3CCOCC3)nc2N)c(C(C)C)cc1OC,Active,Active
C#Cc1cc(Oc2cnc(NCCN3CCOCC3)nc2N)c(C(C)C)cc1OC,Active,Active
COc1cc(C(C)C)c(Oc2cnc(N)nc2N)cc1C#CCO,Active,Active
C#Cc1cc(Oc2cnc(NCCCO)nc2N)c(C(C)C)cc1OC,Active,Active
COc1cc(C(C)C)c(Oc2cnc(N)nc2N)cc1C#Cc1ccccc1,Active,Active
CNCC#Cc1cc(Oc2cnc(N)nc2N)c(C(C)C)cc1OC,Active,Active
C#Cc1cc(Oc2cnc(NCCO)nc2N)c(C(C)C)cc1OC,Active,Active
C#Cc1cc(Oc2cnc(N)nc2N)c(C(C)C)cc1OCCO,Active,Active
COc1cc(C(C)C)c(Oc2cnc(N)nc2N)cc1C#CCCCO,Active,Active
